Assay results: patent US20250360167A1 (Keryx Biopharmaceuticals, Inc., priority 2013, published 2025)

Experiments:
[1] = Phase 3 trial (Example 1): cumulative IV iron intake to Week 52; format: in vivo, human
Procedure: Laboratory measurements were conducted throughout the study to assess safety and efficacy. The dose and specific IV iron preparation administered (if necessary) were at the discretion of the PI. Oral iron therapy was not permitted. Calcium-containing drugs were not permitted if given within two hours of food ingestion (calcium-containing drugs were permitted two hours or more prior to or following food ingestion or at bedtime for the purpose of raising the serum calcium). No Vitamin C supplements were permitted. Patients were allowed to take daily water soluble vitamins that include a small amount of Vitamin C (e.g., Centrum, Nephrocaps, Renaphro), but those patients were instructed to take them two hours or more prior to or following food ingestion or at bedtime. IV iron therapy was not permitted if the ferritin level is >1000 micrograms/L or the TSAT is >30%. If it was deemed in the patient's best interest to receive IV iron outside these parameters, the Clinical Coordinating Center (CCC) was consulted, and when approved and documented, was not considered a protocol exception.
The cumulative IV iron intake from randomization to Week 52 will be compared between treatment groups. This variable will be similarly analyzed as the primary efficacy variable using ANCOVA method. The two-sided 95% confidence intervals of treatment differences for all above comparisons will be presented.

ferritin = assay: Phase 3 trial (Example 1): ferritin; format: in vivo, human; set-up: Ferritin, Mean / Ferritin, Median / Ferritin, Change from Baseline, Mean / Ferritin, Change from Baseline, Median / Ferritin, LS Mean: unit not given here; conditions: for Ferritin, Mean / Ferritin, Median / Ferritin, LS Mean / Ferritin, Change from Baseline, Mean / Ferritin, Change from Baseline, Median / Ferritin, Treatment Differences, LS Mean (KRX-0502) − LS Mean (control), (SE): Table 15
Excerpt: Iron studies including serum iron, ferritin, TSAT, and total iron-binding capacity were done at Screening (Visit 0); at the Randomization Visit (Visit 4); at Visits 7 (Week 4), 9 (Week 8), 11 (Week 12), 12 (Week 16), 13 (Week 20), 14 (Week 24), 15 (Week 28), 16 (Week 32), 17 (Week 36), 18 (Week 40), 19 (Week 44), 20 (Week 48), and 21 (Week 52) of the 52-week Safety Assessment Period; and at Visit 25 (Week 56) of the Efficacy Assessment Period.
Change from baseline in ferritin at Week 52 as compared to baseline (Visit 4). This variable will be analyzed using LOCF methodology. ANCOVA will be employed. The model will include treatment (fixed effect), and baseline (covariate). A sensitivity analysis will be performed using MMRM method.
• 1. Change in serum calcium concentration at Weeks 12, 24, 36, 48, and 52 as compared to baseline (Visit 4). This variable will be analyzed using LOCF methodology. ANCOVA will be employed. The model will include treatment (fixed effect), and baseline (covariate). • 2. Change in ferritin, and TSAT at Weeks 12, 24, 36 and 48 as compared to baseline (Visit 4). This variable will be analyzed using LOCF methodology. ANCOVA will be employed. The model will include treatment (fixed effect), and baseline (covariate). • 3. Change in serum iron and TIBC at Weeks 12, 24, 36, 48, and 52 as compared to baseline (Visit 4). This variable will be analyzed using LOCF methodology. ANCOVA will be employed. The model will include treatment (fixed effect), and baseline (covariate). • 4. Change in Ca x P product at Weeks 12, 24, 36, 48, and 52 as compared to baseline (Visit 4). This variable will be analyzed using LOCF methodology. ANCOVA will be employed. The model will include treatment (fixed effect), and baseline (covariate). • 5. Change in iPTH at Weeks 12, 36, 52, and 56 as compared to baseline (Visit 4). This variable will be analyzed using LOCF methodology. ANCOVA will be employed. The model will include treatment (fixed effect), and baseline (covariate). • 6. Change in serum […], vitamin A, vitamin B-12, vitamin E, vitamin K and folic acid at Weeks 12, 36, and 52 as compared to baseline (Visit 4). This variable will be analyzed using LOCF methodology. ANCOVA will be employed. The model will include treatment (fixed effect), and baseline (covariate). • 7. Change in serum bicarbonate concentration at Weeks 12, 36, and 52 as compared to baseline (Visit 4). This variable will be analyzed using LOCF methodology. ANCOVA will be employed. The model will include treatment (fixed effect), and baseline (covariate). • 8. Change in IV iron intake at Weeks 12, 24, 36, 48, and 52 as compared to baseline (Visit 4). This variable will be analyzed using LOCF methodology. ANCOVA will be employed. The model will include treatment (fixed effect), and baseline (covariate). • 9. Change in the use of EPO (ESA) administered at Weeks 12, 24, 36, 48, and 52 as compared to baseline (Visit 4). This variable will be analyzed using LOCF methodology. ANCOVA will be employed. The model will include treatment (fixed effect), and baseline (covariate). • 10. Change in the use of Vitamin D supplementation (and its analogs) and Sensipar (cinacalcet) at Weeks 12, 24, 36, 48, and 52 as compared to baseline (Visit 4). This variable will be analyzed using LOCF methodology. ANCOVA will be employed. The model will include treatment (fixed effect), and baseline (covariate). • 11. Change in LDL, HDL, and triglycerides at Weeks 12, 36, and 52 as compared to baseline (Visit 4). This variable will be analyzed using LOCF methodology. ANCOVA will be employed. The model will include treatment (fixed effect), and baseline (covariate).

[2] = Method 1 to Handle Overlapping Doses, Table 19
[3] = Day 0 Baseline, Safety Assessment Period

iron (+3), x (1, 2, 3-propanetricarboxylic acid, 2-hydroxy-), y (H2O) [KRX-0502]
Average Daily IV iron intake based on the Cumulative IV iron intake to week 52 (Visit 4-21), Mean [1, 2]: 2.96 | Average Daily IV iron intake based on the Cumulative IV iron intake to week 52 (Visit 4-21), Median [1, 2]: 1.86 | mean reduction in average cumulative IV iron intake ([1]; administered over a period of 52 weeks, stated as embodiment): 51.6% | Mean Ferritin, LS Mean Difference from Active Control Group at Week 52 (ferritin; ANCOVA, Table C): 286 ng/mL | Mean Ferritin (ferritin; Baseline (Day 0), Table C): 595 ng/mL | Ferritin, Mean (ferritin; [3]): 595.00 | Ferritin, Median (ferritin; [3]): 587.00 | Mean Ferritin, Change from Baseline at Week 52 (ferritin; Table C): 302 ng/mL | Ferritin, LS Mean (ferritin; Week 12, ANCOVA): 757.75 | Mean Ferritin (ferritin; Week 12, LOCF, Table C): 751 ng/mL | Ferritin, Change from Baseline, Mean (ferritin; Week 12): 158.88 | Ferritin, Change from Baseline, Median (ferritin; Week 12): 123.00 | Ferritin, Mean (ferritin; Week 12): 751.19 | Ferritin, Median (ferritin; Week 12): 718.00 | Ferritin, Treatment Differences, LS Mean (KRX-0502) − LS Mean (control), (SE) (ferritin; Week 12): 112.95 (29.36) | Ferritin, LS Mean (ferritin; Week 24, ANCOVA): 852.52 | Mean Ferritin (ferritin; Week 24, LOCF, Table C): 847 ng/mL | Ferritin, Change from Baseline, Mean (ferritin; Week 24): 252.49 | Ferritin, Change from Baseline, Median (ferritin; Week 24): 220.00 | Ferritin, Mean (ferritin; Week 24): 846.90 | Ferritin, Median (ferritin; Week 24): 830.00 | Ferritin, Treatment Differences, LS Mean (KRX-0502) − LS Mean (control), (SE) (ferritin; Week 24): 204.43 (32.84) | Ferritin, LS Mean (ferritin; Week 36, ANCOVA): 868.11 | Mean Ferritin (ferritin; Week 36, LOCF, Table C): 863 ng/mL | Ferritin, Change from Baseline, Mean (ferritin; Week 36): 268.77 | Ferritin, Change from Baseline, Median (ferritin; Week 36): 223.00 | Ferritin, Mean (ferritin; Week 36): 863.18 | Ferritin, Median (ferritin; Week 36): 818.00 | Ferritin, Treatment Differences, LS Mean (KRX-0502) − LS Mean (control), (SE) (ferritin; Week 36): 241.24 (38.27) | Ferritin, LS Mean (ferritin; Week 48, ANCOVA): 887.41 | Mean Ferritin (ferritin; Week 48, LOCF, Table C): 882 ng/mL | Ferritin, Change from Baseline, Mean (ferritin; Week 48): 287.69 | Ferritin, Change from Baseline, Median (ferritin; Week 48): 233.00 | Ferritin, Mean (ferritin; Week 48): 882.10 | Ferritin, Median (ferritin; Week 48): 850.00 | Ferritin, Treatment Differences, LS Mean (KRX-0502) − LS Mean (control), (SE) (ferritin; Week 48): 270.56 (39.85) | Ferritin, LS Mean (ferritin; Week 52, ANCOVA): 901.95 | Mean Ferritin (ferritin; Week 52, LOCF, Table C): 897 ng/mL | Ferritin, Change from Baseline, Mean (ferritin; Week 52): 302.11 | Ferritin, Change from Baseline, Median (ferritin; Week 52): 224.00 | Ferritin, Mean (ferritin; Week 52): 897.12 | Ferritin, Median (ferritin; Week 52): 858.00 | Ferritin, Treatment Differences, LS Mean (KRX-0502) − LS Mean (control), (SE) (ferritin; Week 52): 285.65 (42.76) | Mean Ferritin, % Change from Baseline (ferritin; Week 52, Table C): 50.8%
